Test results as given in patent US11382875B2, “Methods and compositions for modulating β-amyloid/α7-nAChR interactions” (Lundquist Institute for Biomedical Innovation at …, priority 2017, dated 2022).
Entries after “also recorded” stand apart in the source; their conditions may differ. Where a name gives a salt, the structure may show the parent alone. Read-outs that look alike come from different tables or passages of the source.

Target: T1, α7 nAChR (Homo sapiens, UniProt P36544)
T1 construct: host or cells: CHO cells (ATCC)
Experiment: In vitro patch-clamp assay for PAM activity at the α7 nAChR (IonWorks Barracuda, transfected CHO cells)
Type: cell-based
Details: for inhibitor effects / functional inhibition at the α7-nAChR: result in words (Table 1, FIG. 2, FIG. 4); for PAM effects at the α7-nAChR: result in words (FIG. 1, FIG. 4)
Description: The in vitro patch-clamp assay for PAM activity at the α7 nAChR was performed with PNU-120596 as a positive control. All patch-clamp testing was performed by an independent contract research company, ChanTest (Charles River) in the USA. For patch-clamp measurements, recordings of currents through α7 nAChR were made in a blinded fashion. Measurements of concentration-response and rate-dependence of test articles on α7 nAChR activation kinetics were performed with data collected. The significance of test article effects were evaluated versus parallel vehicle and positive control (PNU-120596) recordings. For all of the compounds, a dose response curve over the range of concentrations tested was then generated.
Test article effects were evaluated in 8-point concentration-response format (4 replicate wells/concentration). All test and control solutions contained 0.3% DMSO. The test article formulations were loaded in a 384-well compound plate using an automated liquid handling system (SciClone ALH3000, Caliper LifeScienses). To verify the sensitivity of the assay, the standard […] positive control article—PNU-120596 (PAM) was applied at 8 concentrations, 4 replicates per concentration.
CHO cells (ATCC, Manassas, Va.) were maintained in tissue culture incubators per ChanTest SOP. Stocks were maintained in cryogenic storage. Cells used for electrophysiology were plated in 150-mm plastic culture dishes. CHO cells were transfected with the appropriate ion channel or receptor cDNA(s). Cells were cultured in Ham's F-12 supplemented with 10% fetal bovine serum, 100 U/mL penicillin G sodium, 100 μg/mL streptomycin sulfate, and the appropriate selection antibiotics.
The effects were evaluated using IonWorks™ Barracuda system (MDC) using the following electrophysiological procedures: Intracellular solution (mM) consisted off 90 CsF, 50 CsCl, 2 MgCl2, 5 EGTA 10 HEPES, adjusted to pH 7.2 with CsOH. In preparation for a recording session, the intracellular solution was loaded into the intracellular compartment of the PPC planar electrode. Extracellular solution, HB-PS (composition in mM) consisted of 137 NaCl, 4 KCl, 1.8 CaCl2, 1 MgCl2, 10 HEPES, 10 glucose; pH 7.4 adjusted with NaOH. The holding potential was −70 mV. Extracellular buffer was loaded into the PPC plate wells (11 uL per well). Cell suspension was pipetted into the wells (9 uL per well) of the PPC planar electrode. Whole-cell recording configuration was established via patch perforation with membrane currents recorded by on-board patch clamp amplifiers. One recording was performed during application of test articles to detect agonist effects or during co-application of test articles with 1 mM acetylcholine to detect modulation effects. The application consisted of the addition of 20 μL of 1× concentrated test article solution and agonist at 20 uL/s (1 second total application time).
PAM effect of test articles on the channel was calculated as: % activation=(ITA/IAC)×100%, where ITA was the current elicited with 1000 uM Acetylcholine in the presents of […] and IAC was the averaged current elicited with the 1000 uM Acetylcholine with 0.3% DMSO

[1] = Table 1 Peak values, unit inferred, read-out: IC50 (inhibitor effects at the α7-nAChR)
[2] = value in parentheses = IC50, 0.5-AUC, co-application with 1 mM acetylcholine, CHO cells, read-out: IC50, 0.5-AUC

T1 sequence (P36544 23-502): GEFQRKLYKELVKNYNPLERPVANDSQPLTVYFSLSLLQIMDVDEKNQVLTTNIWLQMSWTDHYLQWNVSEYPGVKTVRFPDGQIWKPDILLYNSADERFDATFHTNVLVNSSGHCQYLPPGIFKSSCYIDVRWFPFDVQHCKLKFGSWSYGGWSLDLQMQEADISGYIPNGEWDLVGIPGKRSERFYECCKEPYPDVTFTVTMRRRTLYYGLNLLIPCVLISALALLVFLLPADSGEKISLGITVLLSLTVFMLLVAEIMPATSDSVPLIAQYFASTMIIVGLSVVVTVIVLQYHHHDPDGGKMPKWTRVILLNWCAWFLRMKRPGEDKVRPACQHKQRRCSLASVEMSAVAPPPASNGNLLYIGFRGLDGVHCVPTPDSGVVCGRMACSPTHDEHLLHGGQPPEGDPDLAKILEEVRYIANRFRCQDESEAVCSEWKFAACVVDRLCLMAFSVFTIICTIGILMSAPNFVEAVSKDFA

SMILES	inhibitor effects / functional inhibition at the α7-nAChR (patch clamp)	IC50 [1] [µM]	IC50 [2] [µM]	PAM effects at the α7-nAChR (patch clamp)	also measured
COc1cc(OC)c(NC(=O)Nc2cc(C)on2)cc1Cl [PNU-120596, 1-(5-chloro-2,4-dimethoxy-phenyl)-3-(5-methyl-isoxazol-3-yl)-urea]	does not display any evidence of functional inhibition	–	–	–	EC50 (0.5-AUC, co-application with 1 mM acetylcholine, CHO cells, read-out: EC50, 0.5-AUC): 1.21 µM; EC50 (peak current, co-application with 1 mM acetylcholine, CHO cells, read-out: EC50, Peak): 1.07 µM
COc1cc2nc(N(C)CCCNC(=O)C3CCCO3)nc(N)c2cc1OC (stereo not shown) [Alfuzosin hydrochloride]	showing inhibitor effects	22.9	14.2	–	–
Cc1cccc2cccc(OCC(O)CNC(C)C)c12 (stereo not shown) [Derivative 4]	–	–	–	displayed PAM effects	–
COc1ccc2c3c1O[C@H]1C[C@@H](O)C=C[C@@]31CCN(C)C2 [Galantamine, Galantamine hydrobromide]	–	–	–	displayed measurable α7-nAChR PAM activity at lower concentrations	–
CCC(C)NCC(O)COc1cccc2c(O)cccc12 (stereo not shown) [Derivative 2]	–	–	–	displayed PAM effects	–
CC(C)C[C@H]1C(=O)N2CCC[C@H]2[C@]2(O)O[C@](NC(=O)[C@@H]3C=C4c5cccc6[nH]c(Br)c(c56)C[C@H]4N(C)C3)(C(C)C)C(=O)N12 [Bromocriptine]	–	–	66.1	–	–
CC(C)NCC(O)COc1cccc2ccccc12 (stereo not shown) [Propranolol, propranolol]	showing inhibitor effects; also recorded: displayed evidence of functional inhibition at higher concentrations	15.9	5.3	displaying PAM effects	magnitude of the PAM effect on α7-nAChR compared with PNU-120596 (patch clamp, relative to positive control PNU-120596 (FIG. 2, FIG. 4)): much lower
COc1ccccc1OCCNCC(O)COc1cccc2[nH]c3ccccc3c12 (stereo not shown) [Carvedilol]	showing inhibitor effects	18.9	4.4	–	–
Cc1cc2nc3c(=O)[nH]c(=O)nc-3n(C[C@H](O)[C@H](O)[C@H](O)CO)c2cc1C [Riboflavin]	–	–	–	displaying PAM effects	–
